Reference: patent US11040028B2, “Penicinotam derivative, preparation method and use thereof” (OCEAN UNIVERSITY OF CHINA, priority 2017, dated 2021)
Read-outs that look alike come from different tables or passages of the source.

How the values were obtained:
Type in all cases: cell-based
[1] = test system: human fibrosarcoma cells HT-1080; assay: Anti-fibrosis activity test: inhibition of proliferation of human fibrosarcoma cells HT-1080 (CCK-8); conditions: human fibrosarcoma cells HT-1080, CCK-8, 48 hours
How it was run: (§1)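 48 h compound treatment of fibroblast-type cells seeded at 2×10^4 cells/mL, 37° C, 5% CO2; viability by CCK-8 (2 h, A450). Inhibition rate calculated against blank control, IC50 by curve fitting; pirfenidone served as reference.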

[2] = test system: mouse macrophages (RAW264.7); assay: Lipopolysaccharide-induced NO secretion in macrophages (Griess); conditions: RAW264.7, LPS 1 μg/ml, a/b isomers given as first/second symbol, read-out: IC50 (μM), inhibition of lipopolysaccharide-induced NO secretion in macrophages
How it was run: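 RAW264.7 macrophages in DMEM with 10% FBS received test samples at several concentrations and were stimulated with 1 μg/ml LPS for 24 h. NO in the supernatant was measured with the Griess reagent at 548 nm, […].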

[3] = test system: human dermal fibroblasts CCC-ESF-1; assay: Anti-fibrosis activity test: inhibition of proliferation of human dermal fibroblasts CCC-ESF-1 (CCK-8); conditions: Fibroblast; human dermal fibroblasts CCC-ESF-1, CCK-8, 48 hours
How it was run: as §1

[4] = test system: human hepatic stellate cells LX-2; assay: Anti-fibrosis activity test: inhibition of proliferation of human hepatic stellate cells LX-2 (CCK-8); conditions: Homo sapiens, 48 h, human hepatic stellate cells LX-2, CCK-8, 48 hours
How it was run: as §1

[5] = test system: human lung fibroblasts HFL1; assay: Anti-fibrosis activity test: inhibition of proliferation of human lung fibroblasts HFL1 (CCK-8); conditions: Homo sapiens, HFL1, 48 h, human lung fibroblasts HFL1, CCK-8, 48 hours
How it was run: as §1

[6] = test system: human embryonic lung fibroblast IMR-90; assay: Anti-fibrosis activity test: inhibition of proliferation of human embryonic lung fibroblast IMR-90 (CCK-8); conditions: human embryonic lung fibroblast IMR-90, CCK-8, 48 hours
How it was run: as §1

[7] = test system: cardiac fibroblast RAT-iCell-C002; assay: Anti-fibrosis activity test: inhibition of proliferation of cardiac fibroblast RAT-iCell-C002 (CCK-8); conditions: Cardiac fibroblast, 48 h, cardiac fibroblast RAT-iCell-C002, CCK-8, 48 hours
How it was run: as §1

BHK-21 cells = assay: Anti-fibrosis activity test: inhibition of BHK-21 cell proliferation (CCK-8); conditions: Mesocricetus auratus, BHK-21, 48 h, CCK-8, 48 hours after administration
How it was run: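 Each concentration was tested in triplicate on adhered BHK-21 cells for 48 h, with pirfenidone as reference. A 2 h CCK-8 incubation preceded absorbance reading at 450 nm, and IC50 was obtained from percent inhibition versus blank.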

Row | SMILES | IC50 ([1]; Homo sapiens, HT-1080, 48 h) [mM] | IC50 ([2]; Mus musculus, RAW264.7, 24 h) [µM] | IC50 [1] [mM] | IC50 ([2]; 24 hours) [µM] | IC50 [3] [mM] | IC50 [4] [mM] | IC50 [5] [mM] | IC50 [6] [mM] | IC50 [7] [mM] | IC50 (BHK-21 cells) [mM]
1 | O=C1c2c(n(Cc3cccc(F)c3)c3cccc(F)c3c2=O)-c2cccn21 [Compound 475a, 8-Fluoro-4-(3-fluorobenzyl)-9H-pyrrolizino[1,2-b]quinoline-9,10(4H)-dione] | 5 to 20 | 1 to 10 | – | – | 0.05 to 5 | 0.05 to 5 | 0.05 to 5 | 0.05 to 5 | 0.05 to 5 | 0.05 to 5
2 | O=C1c2c(n(Cc3ccccc3F)c3cccc(Cl)c3c2=O)-c2cccn21 [Compound 480a, 8-Chloro-4-(2-fluorobenzyl)-9H-pyrrolizino[1,2-b]quinoline-9,10(4H)-dione] | 0.05 to 5 | 10 to 50 | – | – | 0.05 to 5 | 0.05 to 5 | 0.05 to 5 | 0.05 to 5 | < 0.05 | 0.05 to 5
3 | O=C1c2c(nc3cccc(Cl)c3c2OCc2ccccc2F)-c2cccn21 [Compound 480b, 8-chloro-9-((2-fluorobenzyl)oxy)-10H-pyrrolizino[1,2-b]quinolin-10-one] | 0.05 to 5 | 1 to 10 | – | – | 0.05 to 5 | 0.05 to 5 | 0.05 to 5 | 0.05 to 5 | 0.05 to 5 | 0.05 to 5
4 | O=C1c2c(n(Cc3ccc(F)cc3)c3c(Cl)cccc3c2=O)-c2cccn21 [Compound 481a, 5-Chloro-4-(4-fluorobenzyl)-9H-pyrrolizino[1,2-b]quinoline-9,10(4H)-dione] | 0.05 to 5 | 10 to 50 | – | – | 0.05 to 5 | 0.05 to 5 | 0.05 to 5 | 0.05 to 5 | 0.05 to 5 | < 0.05
5 | O=C1c2c(nc3c(Cl)cccc3c2OCc2ccc(F)cc2)-c2cccn21 [Compound 481b, 5-chloro-9-((4-fluorobenzyl)oxy)-10H-pyrrolizino[1,2-b]quinolin-10-one] | 0.05 to 5 | 1 to 10 | – | – | 0.05 to 5 | 0.05 to 5 | 0.05 to 5 | 0.05 to 5 | 0.05 to 5 | 0.05 to 5
6 | N#Cc1c(N2CCNCC2)ccc2c(=O)c3c(n(Cc4ccc(F)cc4)c12)-c1cccn1C3=O [Compound 482a, 4-(4-Fluorobenzyl)-9,10-dioxo-6-(piperazin-1-yl)-4,10-dihydro-9H-pyrrolizino[1,2-b]quinoline-5-carbonitrile] | – | – | 5 to 20 | 10 to 50 | 0.05 to 5 | 0.05 to 5 | 0.05 to 5 | 0.05 to 5 | 0.05 to 5 | 0.05 to 5
7 | O=C1c2c(n(Cc3ccc(Cl)cc3)c3c(C(F)(F)F)c(N4CCNCC4)ccc3c2=O)-c2cccn21 [Compound 483a, 4-(4-Chlorobenzyl)-6-(piperazin-1-yl)-5-(trifluoromethyl)-9H-pyrrolizino[1,2-b]quinoline-9,10(4H)-dione] | 0.05 to 5 | – | – | 10 to 50 | 0.05 to 5 | 0.05 to 5 | 0.05 to 5 | 0.05 to 5 | 0.05 to 5 | < 0.05
8 | O=C1c2c(nc3c(C(F)(F)F)c(N4CCNCC4)ccc3c2OCc2ccc(Cl)cc2)-c2cccn21 [Compound 483b, 9-((4-chlorobenzyl)oxy)-6-(piperazin-1-yl)-5-(trifluoromethyl)-10H-pyrrolizino[1,2-b]quinolin-10-one] | – | – | 5 to 20 | 1 to 10 | 0.05 to 5 | 0.05 to 5 | 0.05 to 5 | 0.05 to 5 | 0.05 to 5 | 0.05 to 5
9 | O=C1c2c(n(Cc3ccc(Cl)cc3)c3c(F)c(N4CCNCC4)ccc3c2=O)-c2cccn21 [Compound 484a, 4-(4-Chlorobenzyl)-5-fluoro-6-(piperazin-1-yl)-9H-pyrrolizino[1,2-b]quinoline-9,10(4H)-dione] | 0.05 to 5 | 10 to 50 | – | – | 0.05 to 5 | 0.05 to 5 | 0.05 to 5 | 0.05 to 5 | 0.05 to 5 | 0.05 to 5

Continued, in another order:

Row | IC50 ([1]; Homo sapiens, HT-1080, 48 h) [mM] | IC50 ([2]; Mus musculus, RAW264.7, 24 h) [µM] | IC50 [1] [mM] | IC50 ([2]; 24 hours) [µM] | SMILES | IC50 [3] [mM] | IC50 [4] [mM] | IC50 [5] [mM] | IC50 [6] [mM] | IC50 [7] [mM] | IC50 (BHK-21 cells) [mM]
10 | 0.05 to 5 | 10 to 50 | – | – | N#Cc1cccc2nc3c(c(OCc4ccccc4F)c12)C(=O)n1cccc1-3 [Compound 469b, 9-((2-fluorobenzyl)oxy)-10-oxo-10H-pyrrolizino[1,2-b]quinoline-8-carbonitrile] | 0.05 to 5 | 0.05 to 5 | 0.05 to 5 | 0.05 to 5 | 0.05 to 5 | 0.05 to 5
11 | 0.05 to 5 | 0.1 to 1 | – | – | O=C1c2c([nH]c3cccc(O)c3c2=O)-c2cccn21 [Compound 470a, 8-Hydroxy-9H-pyrrolizino[1,2-b]quinoline-9,10(4H)-dione] | 0.05 to 5 | 0.05 to 5 | 0.05 to 5 | 0.05 to 5 | 0.05 to 5 | 0.05 to 5
12 | 0.05 to 5 | 1 to 10 | – | – | O=C1c2c(nc3cccc(O)c3c2O)-c2cccn21 [Compound 470b, 8,9-dihydroxy-10H-pyrrolizino[1,2-b]quinolin-10-one] | 0.05 to 5 | 0.05 to 5 | 0.05 to 5 | 0.05 to 5 | 0.05 to 5 | 0.05 to 5
13 | 0.05 to 5 | 0.1 to 1 | – | – | O=C1c2c(n(Cc3ccc(Cl)cc3)c3cccc(F)c3c2=O)-c2cccn21 [Compound 471a, 4-(4-Chlorobenzyl)-8-fluoro-9H-pyrrolizino[1,2-b]quinoline-9,10(4H)-dione] | 0.05 to 5 | < 0.05 | 0.05 to 5 | 0.05 to 5 | 0.05 to 5 | 0.05 to 5
14 | 0.05 to 5 | 1 to 10 | – | – | O=C1c2c(nc3cccc(F)c3c2OCc2ccc(Cl)cc2)-c2cccn21 [Compound 471b, 9-((4-chlorobenzyl)oxy)-8-fluoro-10H-pyrrolizino[1,2-b]quinolin-10-one] | 0.05 to 5 | 0.05 to 5 | 0.05 to 5 | 0.05 to 5 | 0.05 to 5 | 0.05 to 5
15 | 0.05 to 5 | 1 to 10 | – | – | O=C1c2c(n(Cc3ccccc3Cl)c3cccc(C(F)(F)F)c3c2=O)-c2cccn21 [Compound 472a, 4-(2-Chlorobenzyl)-8-(trifluoromethyl)-9H-pyrrolizino[1,2-b]quinoline-9,10(4H)-dione] | 0.05 to 5 | 0.05 to 5 | 0.05 to 5 | 0.05 to 5 | 0.05 to 5 | < 0.05
16 | 0.05 to 5 | 1 to 10 | – | – | O=C1c2c(nc3cccc(C(F)(F)F)c3c2OCc2ccccc2Cl)-c2cccn21 [Compound 472b, 9-((2-chlorobenzyl)oxy)-8-(trifluoromethyl)-10H-pyrrolizino[1,2-b]quinolin-10-one] | 0.05 to 5 | 0.05 to 5 | 0.05 to 5 | 0.05 to 5 | 0.05 to 5 | 0.05 to 5
17 | 0.05 to 5 | 1 to 10 | – | – | O=C1c2c(n(Cc3ccc(F)cc3)c3cccc(Cl)c3c2=O)-c2cccn21 [Compound 474a, 8-Chloro-4-(4-fluorobenzyl)-9H-pyrrolizino[1,2-b]quinoline-9,10(4H)-dione] | 0.05 to 5 | 0.05 to 5 | 0.05 to 5 | 0.05 to 5 | 0.05 to 5 | < 0.05
18 | 0.05 to 5 | 1 to 10 | – | – | O=C1c2c(nc3cccc(Cl)c3c2OCc2ccc(F)cc2)-c2cccn21 [Compound 474b, 8-chloro-9-((4-fluorobenzyl)oxy)-10H-pyrrolizino[1,2-b]quinolin-10-one] | 0.05 to 5 | 0.05 to 5 | 0.05 to 5 | 0.05 to 5 | 5 to 20 | 0.05 to 5
19 | < 0.05 | 1 to 10 | – | – | O=C1c2c(nc3cccc(F)c3c2OCc2cccc(F)c2)-c2cccn21 [Compound 475b, 8-fluoro-9-((3-fluorobenzyl)oxy)-10H-pyrrolizino[1,2-b]quinolin-10-one] | 0.05 to 5 | 0.05 to 5 | 0.05 to 5 | 0.05 to 5 | 0.05 to 5 | 0.05 to 5
20 | < 0.05 | 1 to 10 | – | – | N#Cc1c(N2CCNCC2)ccc2c(OCc3ccc(F)cc3)c3c(nc12)-c1cccn1C3=O [Compound 482b, 9-((4-fluorobenzyl)oxy)-10-oxo-6-(piperazin-1-yl)-10H-pyrrolizino[1,2-b]quinoline-5-carbonitrile] | 0.05 to 5 | 0.05 to 5 | 0.05 to 5 | 0.05 to 5 | 0.05 to 5 | 0.05 to 5
